# Measurements reported in patent EP3389640B1, “PHARMACEUTICAL COMPOSITION COMPRISING ANHYDROUS DASATINIB” (Synthon B.V., priority 2015, dated 2017).
# Like-named read-outs stand apart in the source and are kept apart here.
# Assays:
# Format in all cases: physicochemical
# [1] = form conversion during wet granulation in water; conditions: during the process of granulation in water
# Description: The wet granulation process is performed with a granulation solvent selected from the group consisting of water, acetone, ethanol, isopropanol or a mixture thereof.
# [2] = stability of tablets stored at 40°C/75% RH (assay and impurities); conditions: triacetin used as plasticizer in the coating formulation
# From the text: The intragranular components were blended with water in a high shear mixer. The resulting granulate was dried in a fluid bed dryer. The granulate was sieved through an appropriate mesh size sieve. Microcrystalline cellulose and croscarmellose sodium were sieved through a suitable mesh size sieve for deagglomeration. The excipients were mixed with the sieved granulate in a diffusion mixer. Magnesium stearate was sieved through an appropriate sieve to deagglomerate and mixed with the powder mix in a diffusion mixer. The homogeneous powder obtained, was compressed using a rotating tablet press using appropriate punches. Part of the tablets were coated with a water suspension of Opadry® II White 31K28459 coating until 3% weight gain (= […]). The tablets were packed in suitable packaging material and were stored at 40°C/75% RH.
# Hydroxypropyl cellulose was dissolved in water and blended with the other intragranular components in a high shear mixer. The resulting granulate was dried in a fluid bed dryer. The granulate was sieved through an appropriate mesh size sieve. Microcrystalline cellulose and croscarmellose sodium were sieved through a suitable mesh size sieve for deagglomeration. The excipients were mixed with the sieved granulate in a tumbling mixer. […]
# [3] = solubility at different pH values
# From the text: Table 1 gives an overview of the solubility of anhydrous dasatinib ("N-6") and dasatinib monohydrate ("H1-7") at different pH values. Table 1: solubility of anhydrous dasatinib ("N-6") and dasatinib monohydrate ("H1-7")
structure (smiles),measurement,setting,value
"Cc1nc(Nc2ncc(C(=O)Nc3c(C)cccc3Cl)s2)cc(N2CCN(CCO)CC2)n1 [Anhydrous dasatinib (""N-6""), N-(2-chloro-6-methylphenyl)-2-[[6-[4-(2-hydroxyethyl)-1-piperazinyl]-2-methyl-4-pyrimidinyl]amino]-5-thiazolecarboxamide]",conversion into dasatinib monohydrate,[1],does not convert into dasatinib monohydrate
same,reaction with the organic ester triacetin,[2],does not react
same,solubility,[3]; pH 1.2,34510 µg/mL
same,solubility,"[3]; pH 1.2, listed as anhydrous form ""N-6""",34510 µg/mL
same,solubility,"[3]; pH 4.5, aqueous buffer, pH 4.5, read-out: solubility",179 µg/mL
same,solubility,[3]; pH 6.8,1.8 µg/mL
"Cc1nc(Nc2ncc(C(=O)Nc3c(C)cccc3Cl)s2)cc(N2CCN(CCO)CC2)n1 [Dasatinib monohydrate (""H1-7""), N-(2-chloro-6-methylphenyl)-2-[[6-[4-(2-hydroxyethyl)-1-piperazinyl]-2-methyl-4-pyrimidinyl]amino]-5-thiazolecarboxamide]",solubility,[3]; pH 1.2,2850 µg/mL
same,solubility,"[3]; pH 1.2, listed as dasatinib monohydrate ""H1-7""",2850 µg/mL
same,solubility,[3]; pH 4.5,134 µg/mL
same,solubility,[3]; pH 6.8,0.6 µg/mL
